Test results reported in PubChem BioAssay AID1963873 (Molecular Pharmacology Branch, DTP, NCI, 2024).

Tested on: 276233-004-R-J1-PDC KRAS spheroids with HUVEC/MSC, viability
Test: Anticancer human tumor 276233-004-R-J1-PDC patient-derived colon adenocarcinoma cell line growth inhibition [KRAS2]
Settings: for IC50: curve of first compound; for viability, T/C: stronger effect = lower value
Summary of the method: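 KRAS-mutant tumor cells were grown as spheroids with HUVEC endothelial cells and human MSCs as stroma. Targeted agents were tested alone and with KRAS pathway inhibitors. Doses started at or near clinical Cmax, or 10 microM, descending half-log.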

[1] = second compound 0.1 µM, first compound 0.000316 µM
[2] = second compound 0.1 µM, first compound 0.001 µM
[3] = second compound 0.1 µM, first compound 0.00316 µM
[4] = second compound 0.1 µM, first compound 0.01 µM
[5] = second compound 0.1 µM, first compound 0.0316 µM
[6] = second compound 0.1 µM, first compound 0.1 µM
[7] = second compound 0.316 µM, first compound 0.000316 µM
[8] = second compound 0.316 µM, first compound 0.001 µM
[9] = second compound 0.316 µM, first compound 0.00316 µM
[10] = second compound 0.316 µM, first compound 0.01 µM
[11] = second compound 0.316 µM, first compound 0.0316 µM
[12] = second compound 0.316 µM, first compound 0.1 µM
[13] = second compound 1 µM, first compound 0.000316 µM
[14] = second compound 1 µM, first compound 0.001 µM
[15] = second compound 1 µM, first compound 0.00316 µM
[16] = second compound 1 µM, first compound 0.01 µM
[17] = second compound 1 µM, first compound 0.0316 µM
[18] = second compound 1 µM, first compound 0.1 µM
[19] = second compound 3.16 µM, first compound 0.000316 µM
[20] = second compound 3.16 µM, first compound 0.001 µM
[21] = second compound 3.16 µM, first compound 0.00316 µM
[22] = second compound 3.16 µM, first compound 0.01 µM
[23] = second compound 3.16 µM, first compound 0.0316 µM
[24] = second compound 3.16 µM, first compound 0.1 µM
[25] = second compound 10 µM, first compound 0.000316 µM
[26] = second compound 10 µM, first compound 0.001 µM
[27] = second compound 10 µM, first compound 0.00316 µM
[28] = second compound 10 µM, first compound 0.01 µM
[29] = second compound 10 µM, first compound 0.0316 µM
[30] = second compound 10 µM, first compound 0.1 µM
[31] = second compound 0.1 µM, first compound 0.316 µM
[32] = second compound 0.1 µM, first compound 1 µM
[33] = second compound 0.1 µM, first compound 3.16 µM
[34] = second compound 0.316 µM, first compound 0.316 µM
[35] = second compound 0.316 µM, first compound 1 µM
[36] = second compound 0.316 µM, first compound 3.16 µM
[37] = second compound 1 µM, first compound 0.316 µM
[38] = second compound 1 µM, first compound 1 µM
[39] = second compound 1 µM, first compound 3.16 µM
[40] = second compound 3.16 µM, first compound 0.316 µM
[41] = second compound 3.16 µM, first compound 1 µM
[42] = second compound 3.16 µM, first compound 3.16 µM
[43] = second compound 0.1 µM, first compound 10 µM
[44] = second compound 0.316 µM, first compound 10 µM
[45] = second compound 1 µM, first compound 10 µM
[46] = second compound 3.16 µM, first compound 10 µM
[47] = second compound 10 µM, first compound 0.316 µM
[48] = second compound 10 µM, first compound 1 µM
[49] = second compound 10 µM, first compound 3.16 µM
[50] = second compound 10 µM, first compound 10 µM
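Note: cells exposed to agents for seven days before viability read.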
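Throughout, for viability, T/C: 100% = DMSO vehicle control wells and lower values mean fewer viable cells.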

Row | SMILES | IC50 (second compound 0.1 µM) | IC50 (second compound 0.316 µM) | IC50 (second compound 1 µM) | IC50 (second compound 3.16 µM) | IC50 (second compound 10 µM) | viability, T/C [4] | viability, T/C [5] | viability, T/C [6] | viability, T/C [10] | viability, T/C [11] | viability, T/C [12] | viability, T/C [16] | viability, T/C [17] | viability, T/C [18] | viability, T/C [22] | viability, T/C [23] | viability, T/C [24] | viability, T/C [29] | viability, T/C [30] | viability, T/C [31] | further results
1 | Cn1ncnc1[C@H]1c2n[nH]c(=O)c3cc(F)cc(c23)N[C@@H]1c1ccc(F)cc1 + C=CC(=O)N1CCN(c2nc(=O)n(-c3c(C)ccnc3C(C)C)c3nc(-c4c(O)cccc4F)c(F)cc23)C(C)C1 | > 100 nM | > 100 nM | > 100 nM | > 100 nM | > 100 nM | 99.5% | 95.1% | 91.7% | 100% | 94.4% | 92% | 93.9% | 95.5% | 94.9% | 92.5% | 97.8% | 133% | 83.4% | 88.4% |  | viability, T/C [1]: 89.7%; viability, T/C [2]: 98%; viability, T/C [3]: 94.8%; viability, T/C [7]: 99.6%; viability, T/C [8]: 111%; viability, T/C [9]: 101%; viability, T/C [13]: 98.6%; viability, T/C [14]: 121%; viability, T/C [15]: 138%; viability, T/C [19]: 98.4%; viability, T/C [20]: 116%; viability, T/C [21]: 117%; viability, T/C [25]: 88.2%; viability, T/C [26]: 91.3%; viability, T/C [27]: 114%; viability, T/C [28]: 85.7%
2 | CC1COCCN1c1cc(-c2ccnn2C)c2ccnc(-c3ccn[nH]3)c2n1 (stereo not given) + C=CC(=O)N1CCN(c2nc(OCC3CCCN3C)nc3c2CCN(c2cccc4cccc(C)c24)C3)CC1CC#N | > 3160 nM | > 3160 nM | > 3160 nM | 190 nM |  | 111% | 95.3% | 94.6% | 106% | 96.6% | 91.5% | 90% | 90.5% | 77.8% | 76.2% | 61% | 56.8% |  |  | 74.8% | IC50 (second compound 0.0316 µM): > 3160 nM; viability, T/C (second compound 0.0316 µM, first compound 0.01 µM): 100%; viability, T/C (second compound 0.0316 µM, first compound 0.0316 µM): 92.7%; viability, T/C (second compound 0.0316 µM, first compound 0.1 µM): 82.4%; viability, T/C (second compound 0.0316 µM, first compound 0.316 µM): 71.3%; viability, T/C (second compound 0.0316 µM, first compound 1 µM): 67.5%; viability, T/C (second compound 0.0316 µM, first compound 3.16 µM): 56%; viability, T/C [32]: 59%; viability, T/C [33]: 54.1%; viability, T/C [34]: 69.4%; viability, T/C [35]: 59.3%; viability, T/C [36]: 55.6%; viability, T/C [37]: 70.3%; viability, T/C [38]: 64%; viability, T/C [39]: 56.9%; viability, T/C [40]: 42.9%; viability, T/C [41]: 45.6%; viability, T/C [42]: 48%
3 | CC1(C)CCC(CN2CCN(c3ccc(C(=O)NS(=O)(=O)c4ccc(NCC5CCOCC5)c([N+](=O)[O-])c4)c(Oc4cnc5[nH]ccc5c4)c3)CC2)=C(c2ccc(Cl)cc2)C1 + CNCc1ccccc1-c1csc(C(C)Nc2nc(C)nc3cc(OC)c(OC)cc23)c1 | > 10000 nM | 7260 nM | > 10000 nM | < 31.6 nM | < 31.6 nM |  | 81.9% | 111% |  | 102% | 94.9% |  | 110% | 51.5% |  | 0.58% | 0.56% | 0.18% | 0.21% | 105% | viability, T/C [32]: 75.4%; viability, T/C [33]: 79.5%; viability, T/C [43]: 67.3%; viability, T/C [34]: 77.5%; viability, T/C [35]: 103%; viability, T/C [36]: 69.9%; viability, T/C [44]: 42.3%; viability, T/C [37]: 65.7%; viability, T/C [38]: 59.4%; viability, T/C [39]: 58.5%; viability, T/C [45]: 42%; viability, T/C [40]: 0.78%; viability, T/C [41]: 0.7%; viability, T/C [42]: 0.34%; viability, T/C [46]: 1.88%; viability, T/C [47]: 0.17%; viability, T/C [48]: 0.17%; viability, T/C [49]: 0.39%; viability, T/C [50]: 0.28%
4 | CC(C)n1nc(-c2ccc3oc(N)nc3c2)c2c(N)ncnc21 + C=CC(=O)N1CCN(c2nc(=O)n(-c3c(C)ccnc3C(C)C)c3nc(-c4c(O)cccc4F)c(F)cc23)C(C)C1 | > 100 nM | 27.1 nM | 29.5 nM | > 100 nM | > 100 nM | 63.4% | 50.8% | 56.2% | 57.2% | 45.4% | 49.8% | 64.2% | 48.4% | 49.7% | 59.2% | 51% | 51.5% | 54.9% | 58% |  | viability, T/C [1]: 88.4%; viability, T/C [2]: 91.7%; viability, T/C [3]: 64.8%; viability, T/C [7]: 105%; viability, T/C [8]: 94.3%; viability, T/C [9]: 76.6%; viability, T/C [13]: 94.4%; viability, T/C [14]: 86.8%; viability, T/C [15]: 105%; viability, T/C [19]: 87%; viability, T/C [20]: 80.4%; viability, T/C [21]: 75.8%; viability, T/C [25]: 88.2%; viability, T/C [26]: 84.9%; viability, T/C [27]: 67.8%; viability, T/C [28]: 72%
5 | CCN1CCN(Cc2ccc(Nc3ncc(F)c(-c4cc(F)c5nc(C)n(C(C)C)c5c4)n3)nc2)CC1 + C=CC(=O)N1CCN(c2nc(=O)n(-c3c(C)ccnc3C(C)C)c3nc(-c4c(O)cccc4F)c(F)cc23)C(C)C1 | > 1000 nM | > 1000 nM | > 1000 nM | > 1000 nM | > 1000 nM | 105% | 83.5% | 98.2% | 78.8% | 82.4% | 81.8% | 118% | 93.7% | 88.8% | 101% | 91.2% | 80.2% | 69.7% | 70.3% | 88.1% | viability, T/C [3]: 85.7%; viability, T/C [32]: 106%; viability, T/C [9]: 100%; viability, T/C [34]: 101%; viability, T/C [35]: 125%; viability, T/C [15]: 95%; viability, T/C [37]: 110%; viability, T/C [38]: 101%; viability, T/C [21]: 92.7%; viability, T/C [40]: 74.2%; viability, T/C [41]: 119%; viability, T/C [27]: 62.9%; viability, T/C [28]: 68.2%; viability, T/C [47]: 87.1%; viability, T/C [48]: 65.4%
6 | CC1OCC2(CCN(c3cnc(Sc4ccnc(N)c4Cl)c(N)n3)CC2)C1N (stereo not given) + C=CC(=O)N1CCN(c2nc(=O)n(-c3c(C)ccnc3C(C)C)c3nc(-c4c(O)cccc4F)c(F)cc23)C(C)C1 | > 10000 nM | > 10000 nM | > 10000 nM | > 10000 nM | > 10000 nM |  | 93.7% | 85.8% |  | 88.7% | 103% |  | 94.7% | 97.7% |  | 98.6% | 96.4% | 78.4% | 82.4% | 82.3% | viability, T/C [32]: 83.7%; viability, T/C [33]: 71.6%; viability, T/C [43]: 69.9%; viability, T/C [34]: 81.9%; viability, T/C [35]: 85.9%; viability, T/C [36]: 67.2%; viability, T/C [44]: 68%; viability, T/C [37]: 76.2%; viability, T/C [38]: 87.4%; viability, T/C [39]: 74.2%; viability, T/C [45]: 55.8%; viability, T/C [40]: 88.3%; viability, T/C [41]: 81.8%; viability, T/C [42]: 63.1%; viability, T/C [46]: 58%; viability, T/C [47]: 63.9%; viability, T/C [48]: 58.3%; viability, T/C [49]: 68.4%; viability, T/C [50]: 71.8%
